Eight molecules from article PMC5367682, “Fragment library screening identifies hits that bind to the non-catalytic surface of Pseudomonas aeruginosa DsbA1” (PLoS ONE, 2017) can be followed below.

The structures appear in SMILES notation.

For the first experiment, the target named is T1, PaDsbA1 (Pseudomonas aeruginosa, UniProt P0C2B2).
T1 construct: gene dsbA; N-terminal His6 tag cut with TEV; E. coli BL21(DE3) Gold; 15N-labelled for NMR, oxidized; NMR structure residues 3-192
T1 sequence (P0C2B2 22-211): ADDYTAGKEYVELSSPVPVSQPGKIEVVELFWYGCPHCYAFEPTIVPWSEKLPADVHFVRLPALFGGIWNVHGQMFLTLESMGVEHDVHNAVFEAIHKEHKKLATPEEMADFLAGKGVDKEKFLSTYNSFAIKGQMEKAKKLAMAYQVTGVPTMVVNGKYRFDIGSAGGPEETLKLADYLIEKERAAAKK
Put plainly: […]-HSQC NMR titration, CSP fitted to one-site model. It is filed as binding.
`Cc1ccccc1CSc1nncn1N` [compound 1, Fragment 1] gave a Kd of 900 µM. Still for that read-out and setting: the value for `Cc1cc(C(=O)Nc2cccc(O)c2)c(C)o1` [compound 2, Fragment 2] was 1600 ± 200 µM.

Molecule `Oc1nc2ccccc2s1` [compound 3, Fragment 3] came in with a Kd of 2100 ± 300 µM. In turn, `Nc1ccc(-c2nc3ccccc3[nH]2)cc1` [compound 4, Fragment 4] displayed a Kd of 2500 ± 400 µM. Still for that read-out and setting: the value for `NNC(=O)c1cc(C2CC2)n[nH]1` [compound 5, Fragment 5] was 2700 ± 700 µM; that for `COc1ccc(-c2nc(N)sc2C)cc1` [compound 6, Fragment 6] was 3900 ± 200 µM; that for `CNCc1ccc(-c2cccc(Cl)c2)o1` [compound 7, Fragment 7] was 4300 ± 1000 µM.

With `Nc1cccc(C(=O)Nc2ccccc2Cl)c1` [compound 8, Fragment 8], the Kd came to 4400 ± 5000 µM.

In another experiment the target is T2, EcDsbA (Escherichia coli, UniProt P0AEG4).
T2 construct: gene dsbA; 15N-labelled for HSQC
T2 sequence (P0AEG4 20-208): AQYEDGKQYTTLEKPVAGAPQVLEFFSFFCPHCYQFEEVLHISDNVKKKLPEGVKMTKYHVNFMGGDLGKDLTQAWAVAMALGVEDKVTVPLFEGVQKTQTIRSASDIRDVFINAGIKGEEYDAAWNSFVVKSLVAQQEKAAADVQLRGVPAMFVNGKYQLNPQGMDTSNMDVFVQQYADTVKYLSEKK
Put plainly: […]-HSQC NMR after STD NMR. It is filed as binding.
Regarding `COc1ccc(-c2nc(N)sc2C)cc1` [compound 6, Fragment 6], the Kd is > 5000 µM.

The Kd is a measure of binding affinity in units of concentration. Low values mean a tighter complex, high ones a looser complex.
